Measurements as given in EP4703362A1 (Chengdu Sibeibo Pharmaceutical Technology Co., Ltd, priority 2023, dated 2024).
Where two headings read alike, the source gives them in different places.

Target: T1, CGRP receptor complex (Homo sapiens, UniProt O60894+Q16602)
T1 construct: host or cells: SK-N-MC
Assay: determination of cell functional antagonism - cAMP determination
Type: cell-based
Method: 1.Experimental principle A CGRP receptor complex was coupled with Gs in G protein, the combination of CGRP and CGRP receptor complex led to Gs activation, and cAMP (3',5'-cyclic adenosine monophosphate) was produced. 2.Experimental purpose The ability of the compound of the present invention to inhibit CGRP-stimulated cAMP formation in SK-N-MC cells was determined. 3.Experimental materials 3.1Experimental cell line: SK-N-MC (neuroepithelioma cells) from National Science and Technology Infrastructure - Biomedical Materials and Cell Resources. 3.2Reagents and consumables
4.Experimental steps • 4.1Cell preparation: The SK-N-MC cells were resuscitated and cultured in advance, and a cell confluence degree should be 70%-80% before use. • 4.2A sample dilution, a tested compound and α-CGRP (human) were prepared. • 4.3Cell seeding and drug effect: The SK-N-MC cells were digested, centrifuged, then resuspended with the sample dilution, and inoculated into a 384-well plate. Each well was added with the α-CGRP (human) and the tested compound respectively, and blown and mixed evenly. The well plate was adhered with a sealing film, and placed on an enzyme-labeled incubator to incubate at 25°C. • 4.4cAMP determination: carried out according to LANCE Ultra cAMP Kit specification Eu-cAMP tracer and ULight-anti-cAMP working solutions were prepared in the dark, respectively added into the well plate, and blown and mixed evenly.

[1] = inhibition of CGRP-stimulated cAMP formation in SK-N-MC cells, read-out: IC50
[2] = inhibition of CGRP-stimulated cAMP formation in SK-N-MC cells

T1 sequence (Q16602 23-461): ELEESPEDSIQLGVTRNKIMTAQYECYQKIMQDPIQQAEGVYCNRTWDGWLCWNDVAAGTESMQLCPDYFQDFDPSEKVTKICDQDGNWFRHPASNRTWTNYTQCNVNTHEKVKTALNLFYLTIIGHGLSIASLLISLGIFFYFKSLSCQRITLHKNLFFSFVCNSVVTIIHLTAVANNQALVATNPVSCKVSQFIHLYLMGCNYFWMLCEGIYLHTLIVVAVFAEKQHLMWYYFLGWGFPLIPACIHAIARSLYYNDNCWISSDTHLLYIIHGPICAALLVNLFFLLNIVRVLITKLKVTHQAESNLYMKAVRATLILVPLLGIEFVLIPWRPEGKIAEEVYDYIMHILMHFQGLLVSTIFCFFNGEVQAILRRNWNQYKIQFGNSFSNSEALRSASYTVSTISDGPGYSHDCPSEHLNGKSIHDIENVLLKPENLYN
T1 sequence (O60894 27-148): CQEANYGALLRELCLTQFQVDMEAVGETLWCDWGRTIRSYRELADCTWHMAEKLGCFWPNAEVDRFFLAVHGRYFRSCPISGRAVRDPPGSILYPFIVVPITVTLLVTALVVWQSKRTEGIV

IC50 [1] [nM] | Compound | IC50 [nM] | also measured
0.65 | Cc1cc(C[C@@H](NC(=O)N2CCC(c3cc4c([nH]c3=O)SCC4(C)C)CC2)C(=O)N2CCN(C3CCN(C)CC3)CC2)cc2cn[nH]c12 [Example 2, (R)-4-(3,3-dimethyl-6-oxo-2,3,6,7-tetrahydrothieno[2,3-b]pyridine-5-yl)-N-(3-(7-methyl-1H-indazole-5-yl)-1-(4-(1-methylpiperidine-4-yl)piperazine-1-yl)-1-oxopropan-2-yl)piperidine-1-formamide] | – | IC50 values / inhibitory activities (in words) (inhibition of CGRP-stimulated cAMP formation, statement of the conclusion): pM level
– | Cc1cc(C[C@@H](NC(=O)N2CCC(c3cc4c([nH]c3=O)CCC4(C)C)CC2)C(=O)N2CCN(C3CCN(C)CC3)CC2)cc2cn[nH]c12 [Example 7] | 6.02 | –
7.83 | Cc1cc(C[C@@H](NC(=O)N2CCC(c3cc4c([nH]c3=O)CSC4)CC2)C(=O)N2CCN(C3CCN(C)CC3)CC2)cc2cn[nH]c12 [Example 11, (R)-N-(3-(7-methyl-1H-indazole-5-yl)-1-(4-(1-methylpiperidine-4-yl)piperazine-1-yl)-1-oxopropan-2-yl)-4-(2-oxo-1,2,5,7-tetrahydrothieno[3,4-b]pyridine-3-yl)piperidine-1-formamide] | – | –
– | Cc1cc(C[C@@H](NC(=O)N2CCC(c3cc4c([nH]c3=O)CSCC4)CC2)C(=O)N2CCN(C3CCN(C)CC3)CC2)cc2cn[nH]c12 [Example 13, (R)-N-(3-(7-methyl-1H-indazole-5-yl)-1-(4-(1-methylpiperidine-4-yl)piperazine-1-yl)-1-oxopropan-2-yl)-4-(2-oxo-2,5,6,8-tetrahydro-1H-thiopyrano[3,4-b]pyridine-3-yl)piperidine-1-for mamide] | – | IC50 [2]: 1.44 nM
– | Cc1cc(C[C@@H](NC(=S)N2CCC(c3cc4c([nH]c3=O)SCC4)CC2)C(=O)N2CCN(C3CCN(C)CC3)CC2)cc2cn[nH]c12 [Example 16] | 0.71 | –
15.4 | Cc1cc(C[C@@H](NC(=O)N2CCC(c3cc4c([nH]c3=O)CCS4)CC2)C(=O)N2CCN(C3CCN(C)CC3)CC2)cc2cn[nH]c12 [Example 17, (R)-N-(3-(7-methyl-1H-indazole-5-yl)-1-(4-(1-methylpiperidine-4-yl)piperazine-1-yl)-1-oxopropan-2-yl)-4-(5-oxo-2,3,4,5-tetrahydrothieno[3,2-b]pyridine-6-yl)piperidine-1-formamide] | – | –
– | Cc1cc(C[C@@H](NC(=O)N2CCN(c3cc4c([nH]c3=O)SCCC4)CC2)C(=O)N2CCN(C3CCN(C)CC3)CC2)cc2cn[nH]c12 [Example 18, (R)-N-(3-(7-methyl-1H-indazole-5-yl)-1-(4-(1-methylpiperidine-4-yl)piperazine-1-yl)-1-oxopropan-2-yl)-4-(7-oxo-3,4,7,8-tetrahydro-2H-thiopyrano[2,3-b]pyridine-6-yl)piperazine-1-for mamide] | – | IC50 [2]: 0.95 nM
0.39 | Cc1cc(C[C@@H](NC(=O)N2CCC(c3cc4c([nH]c3=O)SCC4)CC2)C(=O)N2CCC(N3CCN(C)CC3)CC2)cc2cn[nH]c12 [Example 19, (R)-N-(3-(7-methyl-1H-indazole-5-yl)-1-(4-(4-methylpiperazine-1-yl)piperidine-1-yl)-1-oxopropan-2-yl)-4-(6-oxo-2,3,6,7-tetrahydrothieno[2,3-b]pyridine-5-yl)piperidine-1-formamide] | – | –
0.37 | Cc1cc(C[C@@H](NC(=O)N2CCC(c3cc4c([nH]c3=O)SCC4)CC2)C(=O)N2CCC(N3CCCCC3)CC2)cc2cn[nH]c12 [Example 20, (R)-N-(1-([1,4'-bipiperidine]-1'-yl)-3-(7-methyl-1H-indazole-5-yl)-1-oxopropan-2-yl)-4-(6-oxo-2,3,6,7-tetrahydrothieno[2,3-b]pyridine-5-yl)piperidine-1-formamide] | – | –
– | Cc1cc(C[C@@H](NC(=O)N2CCC(c3cc4c([nH]c3=O)SCC4)CC2)C(=O)N2CCC(C)(N3CCCCC3)CC2)cc2cn[nH]c12 [Example 22, (R)-N-(3-(7-methyl-1H-indazole-5-yl)-1-(4'-methyl-[1,4'-bipiperidine]-1'-yl)-1-oxopropan-2-yl)-4-(6-oxo-2,3,6,7-tetrahydrothieno[2,3-b]pyridine-6-yl)piperidine-1-formamide] | 0.81 | –
– | Cc1cc(C[C@@H](NC(=S)N2CCC(c3cc4c([nH]c3=O)SCCC4)CC2)C(=O)N2CCN(C3CCN(C)CC3)CC2)cc2cn[nH]c12 [Example 23] | 1.12 | –
1.02 | Cc1cc(C[C@@H](NC(=O)N2CCC(c3cc4c([nH]c3=O)SCCC4)CC2)C(=O)N2CCC(C)(N3CCCCC3)CC2)cc2cn[nH]c12 [Example 24, (R)-N-(3-(7-methyl-1H-indazole-5-yl)-1-(4'-methyl-[1,4'-bipiperidine]-1'-yl)-1-oxopropan-2-yl)-4-(7-oxo-3,4,7,8-tetrahydro-2H-thiopyrano[2,3-b]pyridine-6-yl)piperidine-1-formamide] | – | –
0.1 | Cc1cc(C[C@@H](NC(=O)N2CCC(c3cc4c([nH]c3=O)SCCC4)CC2)C(=O)N2CCC(N3CCCCC3)CC2)cc2cn[nH]c12 [Example 26, (R)-N-(1-([1,4'-bipiperidine]-1'-yl)-3-(7-methyl-1H-indazole-5-yl)-1-oxopropan-2-yl)-4-(7-oxo-3,4,7,8-tetrahydro-2H-thiopyrano[2,3-b]pyridine-6-yl)piperidine-1-formamide] | – | –
1.24 | Cc1cc(CC(CC(=O)N2CCC(c3cc4c([nH]c3=O)SCCC4)CC2)C(=O)N2CCN(C3CCN(C)CC3)CC2)cc2cn[nH]c12 (stereo not drawn) [Example 27, 2-((7-methyl-1H-indazole-5-yl)methyl)-1-(4-(1-methylpiperidine-4-yl)piperazine-1-yl)-4-(4-(7-oxo-3,4,7,8-tetrahydro-2H-thiopyrano[2,3-b]pyridine-6-yl)piperidine-1-yl)butane-1,4-dione] | – | –
2.05 | Cc1cc(CC(CC(=O)N2CCC(c3cc4c([nH]c3=O)SCC4)CC2)C(=O)N2CCN(C3CCN(C)CC3)CC2)cc2cn[nH]c12 (stereo not drawn) [Example 31, 2-((7-methyl-1H-indazole-5-yl)methyl)-1-(4-(1-methylpiperidine-4-yl)piperazine-1-yl)-4-(4-(6-oxo-2,3,6,7-tetrahydrothieno[2,3-b]pyridine-5-yl)piperidine-1-yl)butane-1,4-dione] | – | –
– | Cc1cc(C[C@@H](NC(=O)N2CCC(c3cc4c([nH]c3=O)[S+]([O-])CCC4)CC2)C(=O)N2CCN(C3CCN(C)CC3)CC2)cc2cn[nH]c12 (stereo partly drawn) [Example 32, N-((R)-3-(7-methyl-1H-indazole-5-yl)-1-(4-(1-methylpiperidine-4-yl)piperazine-1-yl)-1-oxopropan-2-yl)-4-(1-oxidation-7-oxo-3,4,7,8-tetrahydro-2H-thiopyrano[2,3-b]pyridine-6-yl)pipe ridine-1-formamide] | 0.29 | –
– | Cc1cc(C[C@@H](NC(=O)N2CCC(c3cc4c([nH]c3=O)SCC43CC3)CC2)C(=O)N2CCN(C3CCN(C)CC3)CC2)cc2cn[nH]c12 [Example 33, (R)-N-(3-(7-methyl-1H-indazole-5-yl)-1-(4-(1-methylpiperidine-4-yl)piperazine-1-yl)-1-oxopropan-2-yl)-4-(6'-oxo-6',7'-dihydro-2'H-spiro[cyclopropane-1,3'-thieno][2,3-b]pyridine-5'-yl)piperidine-1-formamide] | 0.37 | –
– | Cc1cc(C[C@@H](NC(=O)N2CCC(c3cc4c([nH]c3=O)[S+]([O-])CC4)CC2)C(=O)N2CCN(C3CCN(C)CC3)CC2)cc2cn[nH]c12 (stereo partly drawn) [Example 35, N-((R)-3-(7-methyl-1H-indazole-5-yl)-1-(4-(1-methylpiperidine-4-yl)piperazine-1-yl)-1-oxopropan-2-yl)-4-(1-oxidation-6-oxo-2,3,6,7-tetrahydrothieno[2,3-b]pyridine-5-yl)piperidine-1-formamide] | 0.69 | –
– | Cc1cc(C[C@@H](NC(=O)N2CCC(c3cc4c([nH]c3=O)SCC4)CC2)C(=O)N2CC3CC2CC3N2CCCCC2)cc2cn[nH]c12 (stereo partly drawn) [Example 36] | 4.61 | –
3.47 | Cc1cc(C[C@@H](NC(=O)N2CCC(c3cc4c([nH]c3=O)SCCC4)CC2)C(=O)N2CC3CC2CC3N2CCCCC2)cc2cn[nH]c12 (stereo partly drawn) [Example 40, N-((2R)-3-(7-methyl-1H-indazole-5-yl)-1-oxo-1-(5-(piperidine-1-yl)-2-azabicyclo[2.2.1]hept-2-yl)propan-2-yl)-4-(7-oxo-3,4,7,8-tetrahydro-2H-thiopyrano[2,3-b]pyridine-6-yl)piperidine-1-formamide] | – | –
– | Cc1cc(CC(OC(=O)N2CCC(c3cc4c([nH]c3=O)SCCC4)CC2)C(=O)N2CCN(C3CCN(C)CC3)CC2)cc2cn[nH]c12 (stereo not drawn) [Example 41] | 0.38 | –
0.27 | Cc1cc(CC(OC(=O)N2CCC(c3cc4c([nH]c3=O)SCC4)CC2)C(=O)N2CCN(C3CCN(C)CC3)CC2)cc2cn[nH]c12 (stereo not drawn) [Example 42, 3-(7-methyl-1H-indazole-5-yl)-1-(4-(1-methylpiperidine-4-yl)piperazine-1-yl)-1-oxopropan-2-yl-4-(6-oxo-2,3,6,7-tetrahydrothieno[2,3-b]pyridine-5-yl)piperidine-1-formate] | – | –

Compound | IC50 [1] [nM] | IC50 [nM] | also measured
Cc1cc(C[C@@H](NC(=O)N2CCC(c3cc4c([nH]c3=O)SCCC4)CC2)C(=O)N2C3CCC2CC(N2CCCCC2)C3)cc2cn[nH]c12 (stereo partly drawn) [Example 39, N-((2R)-3-(7-methyl-1H-indazole-5-yl)-1-oxo-1-(3-(piperidine-1-yl)-8-azabicyclo[3.2.1]octane-8-yl)propan-2-yl)-4-(7-oxo-3,4,7,8-tetrahydro-2H-thiopyrano[2,3-b]pyridine-6-yl)piperidine-1-formamide] | 0.13 | – | –
